Results reported in PubChem BioAssay (NCI).
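Each compound was tested at five concentrations against cells in 96-well plates for 48 hours. GI50 is the concentration that inhibits growth by half. TGI: total growth inhibition.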

Tests used:
Assay in all cases: NCI-60 cell line screen, 48 h
[1] = test system: CCRF-CEM leukemia
[2] = test system: 786-0 renal
[3] = test system: OVCAR-5 ovarian
[4] = test system: CAKI-1 renal
[5] = test system: NCI-H460 lung
[6] = test system: NCI-H522 lung
[7] = test system: OVCAR-3 ovarian
[8] = test system: RPMI-8226 leukemia
[9] = test system: SK-OV-3 ovarian
[10] = test system: SR leukemia

O=C1c2cccnc2-c2nc(-c3ccccc3)cc3c2c1nc1ccccc13
GI50 [1]: 2.98 µM | TGI [1]: 29.7 µM | GI50 [2]: 5.88 µM | TGI [2]: 20.1 µM | GI50 [3]: 16.2 µM | TGI [3]: 30.8 µM | GI50 [4]: 6.67 µM | TGI [4]: 17.5 µM | GI50 [5]: 0.844 µM | TGI [5]: 3.74 µM | GI50 [6]: 0.714 µM | TGI [6]: 3.06 µM | GI50 [7]: 0.31 µM | TGI [7]: > 100 µM | GI50 [8]: 0.21 µM | GI50 [9]: 9.58 µM | TGI [9]: 25.2 µM

Cc1ccc(C)c(NC(=O)CCC(=O)CC(=O)C(C)(C)C)c1
TGI [1]: > 100 µM | TGI [2]: > 100 µM | TGI [3]: > 100 µM | TGI [4]: > 100 µM | TGI [5]: > 100 µM | TGI [6]: > 100 µM | TGI [7]: > 100 µM | TGI [8]: > 100 µM | TGI [9]: > 100 µM

C[C@@H](Oc1cc(-n2cnc3ccc(OCC4CCN(C)CC4)cc32)sc1C(N)=O)c1ccccc1C(F)(F)F
GI50 [1]: 0.0673 µM | TGI [1]: 3.3 µM | GI50 [2]: 0.523 µM | TGI [2]: 4.24 µM | GI50 [3]: 0.114 µM | TGI [3]: 3.81 µM | GI50 [4]: 1.91 µM | TGI [4]: 5.23 µM | GI50 [5]: 0.0872 µM | TGI [5]: 3.1 µM | GI50 [6]: 0.0472 µM | TGI [6]: 0.236 µM | GI50 [7]: 0.0801 µM | TGI [7]: 2.86 µM | GI50 [8]: 0.133 µM | TGI [8]: 5.89 µM | GI50 [9]: 0.143 µM | TGI [9]: 2.25 µM

Nc1ncn([C@@H]2C=C(CO)C(O)C2O)c(=O)n1 (some centres undefined)
TGI [1]: > 100 µM | TGI [2]: > 100 µM | TGI [3]: > 100 µM | TGI [4]: > 100 µM | TGI [5]: > 100 µM | TGI [6]: > 100 µM | TGI [7]: > 100 µM | TGI [8]: > 100 µM | TGI [9]: > 100 µM

O=C1/C(=C/c2ccccc2Cl)COc2ccccc21
TGI [1]: 33.7 µM | TGI [2]: 28.5 µM | TGI [3]: 32.4 µM | TGI [5]: 43.6 µM | TGI [6]: 30.5 µM | TGI [7]: 34.8 µM | TGI [8]: 22 µM | TGI [9]: 72.5 µM

CC1(C)CC[C@]2(C(=O)O)CCC3(C)C(=CCC4[C@@]5(C)CC[C@H](OC6OCC(O)C(O)C6OC6OC(CO)C(O)C(O)C6O)C(C)(C)C5CC[C@]43C)C2C1 (some centres undefined)
TGI [2]: 4.02 µM | TGI [3]: 6.93 µM | TGI [4]: 3.06 µM | TGI [5]: 4.22 µM | TGI [10]: 5.87 µM | TGI [7]: 4.39 µM | TGI [8]: 6.71 µM | TGI [9]: 4.25 µM

CCCCCNC(=O)C1C(=O)N(CCCCC)C(=O)/C1=N\N (centres undefined)
TGI [1]: > 100 µM | TGI [2]: > 100 µM | TGI [3]: > 100 µM | TGI [5]: > 100 µM | TGI [6]: > 100 µM | TGI [7]: > 100 µM

Clc1ccc(C2=NN(c3ccccc3)C3c4cc(Br)ccc4OCC23)cc1 (centres undefined)
TGI [1]: > 100 µM | TGI [2]: > 100 µM | TGI [3]: > 100 µM | TGI [5]: > 100 µM | TGI [6]: > 100 µM | TGI [7]: > 100 µM | TGI [8]: > 100 µM | TGI [9]: > 100 µM

O=c1[nH]cnc2c1nnn2C1C=C(CO)C(O)C1O (centres undefined)
TGI [1]: > 100 µM | TGI [2]: > 100 µM | TGI [3]: > 100 µM | TGI [4]: > 100 µM | TGI [5]: > 100 µM | TGI [10]: > 100 µM | TGI [7]: > 100 µM | TGI [8]: > 100 µM | TGI [9]: > 100 µM

c1ccc2c(c1)SCCCSCCCS2
TGI [1]: > 100 µM | TGI [2]: > 100 µM | TGI [3]: > 100 µM | TGI [5]: > 100 µM | TGI [10]: > 100 µM | TGI [6]: > 100 µM | TGI [7]: > 100 µM | TGI [9]: > 100 µM

Nc1cc2c3c(cccc3c1)C(=O)N(CCN1CCN(CCN3C(=O)c4cccc5cc(N)cc(c45)C3=O)CC1)C2=O
TGI [1]: > 100 µM | TGI [2]: > 100 µM | TGI [3]: > 100 µM | TGI [4]: > 100 µM | TGI [5]: > 100 µM | TGI [6]: > 100 µM | TGI [7]: > 100 µM | TGI [8]: > 100 µM | TGI [9]: > 100 µM

COc1ccc(C(NCCNC(c2ccc(OC)c(OC)c2)c2cc3c(cc2O)OCO3)c2cc3c(cc2O)OCO3)cc1OC (centres undefined)
TGI [1]: 0.86 µM | TGI [2]: 4.58 µM | TGI [3]: 11.6 µM | TGI [4]: 7.77 µM | TGI [5]: 18.3 µM | TGI [10]: 3.43 µM | TGI [6]: 3.52 µM | TGI [7]: 6.82 µM | TGI [9]: 18.8 µM

O=C(CN1c2ccccc2Sc2ccccc21)n1cnc2ccccc21
TGI [1]: > 100 µM | TGI [2]: > 100 µM | TGI [3]: > 100 µM | TGI [5]: > 100 µM | TGI [7]: > 100 µM | TGI [8]: > 100 µM | TGI [9]: > 100 µM

COc1ccc(C=O)c(N(C)C(=O)C(C)(C)C)c1
TGI [1]: > 100 µM | TGI [2]: > 100 µM | TGI [5]: > 100 µM | TGI [6]: > 100 µM | TGI [7]: > 100 µM | TGI [8]: > 100 µM | TGI [9]: > 100 µM

CC/C(=C(/CC)c1ccc(OP(=O)([O-])[O-])cc1)c1ccc(OP(=O)([O-])[O-])cc1.N.N.N.N.[Pt+4].[Pt+4]
GI50 [1]: 0.898 µM | TGI [1]: > 100 µM | GI50 [2]: 4.77 µM | TGI [2]: > 100 µM | GI50 [3]: 6.98 µM | TGI [3]: 77.8 µM | GI50 [5]: 0.933 µM | TGI [5]: 7.62 µM | GI50 [10]: 1.28 µM | TGI [10]: > 100 µM | GI50 [7]: 2.49 µM | TGI [7]: 8.89 µM | GI50 [8]: 4.19 µM | TGI [8]: > 100 µM | GI50 [9]: 3.85 µM | TGI [9]: 17 µM

Cc1cc2c(C)nn(Cc3ccc(Cl)cc3Cl)c2c(C#N)c1C
TGI [1]: > 100 µM | TGI [2]: > 100 µM | TGI [3]: > 100 µM | TGI [5]: > 100 µM | TGI [10]: > 100 µM | TGI [7]: > 100 µM | TGI [8]: > 100 µM | TGI [9]: > 100 µM

CCOc1ccc(NC(=O)/C(=C/c2ccccc2)C(C)=O)cc1
TGI [1]: 10.5 µM | TGI [2]: 24.8 µM | TGI [3]: 36.5 µM | TGI [4]: 25.3 µM | TGI [5]: 30.9 µM | TGI [6]: 7.66 µM | TGI [7]: 25.3 µM | TGI [8]: 10.6 µM | TGI [9]: 40.7 µM

CCN1N=CSC12C(=O)N(c1ccccc1)C(=O)N2c1ccccc1 (centres undefined)
TGI [1]: > 100 µM | TGI [2]: > 100 µM | TGI [4]: > 100 µM | TGI [5]: > 100 µM | TGI [10]: > 100 µM | TGI [6]: > 100 µM | TGI [7]: > 100 µM | TGI [9]: > 100 µM

COc1ccc(C(=O)Nc2ccccc2C#N)cc1
TGI [1]: > 100 µM | TGI [2]: > 100 µM | TGI [3]: > 100 µM | TGI [4]: > 100 µM | TGI [5]: > 100 µM | TGI [10]: > 100 µM | TGI [7]: > 100 µM | TGI [8]: > 100 µM

O=C(Nc1ccc(Cl)cc1)C(=O)C1=C(O)c2ccccc2OC1
TGI [1]: > 100 µM | TGI [2]: > 100 µM | TGI [3]: > 100 µM | TGI [4]: > 100 µM | TGI [5]: > 100 µM | TGI [6]: > 100 µM | TGI [7]: > 100 µM | TGI [8]: > 100 µM | TGI [9]: > 100 µM

COC(=O)[C@@]12C3=NO[C@]1(C(=O)OC)C(O[Si](C)(C)C(C)(C)C)C1OC(C)(C)OC1[C@@H]2[C@@H](OCc1ccccc1)CC3 (some centres undefined)
TGI [1]: > 100 µM | TGI [2]: > 100 µM | TGI [7]: > 100 µM | TGI [8]: > 100 µM | TGI [9]: > 100 µM

COc1ccc2c(c1)CC[C@@H]1C2CC[C@]2(C)C(=O)N(C)C(=O)CC12 (some centres undefined)
TGI [1]: > 100 µM | TGI [2]: > 100 µM | TGI [3]: > 100 µM | TGI [4]: > 100 µM | TGI [5]: > 100 µM | TGI [10]: > 100 µM | TGI [6]: > 100 µM | TGI [7]: > 100 µM | TGI [9]: > 100 µM
